Patent publication EP4722365A1, “DOUBLE-STRANDED NUCLEOTIDE COMPOUND FOR METABOLIC DISEASES AND USE THEREOF” (Visirna Therapeutics (Suzhou) Co., Ltd., priority 2023, dated 2024)

Columns and labels:
[1] = system: DGAT2; test: Inhibitory activity of dS319 on the target gene DGAT2 in non-naive Cynomolgus macaque (Example 11); type: in vivo; conditions: for Average inhibition rate, %: 3mpk subcutaneous on days 1 and 29, liver
Method: In-vivo experiment: The in-vivo experimental designs for subcutaneous injection in non-naive Cynomolgus macaque, the administration and the sample collection method were shown in the table below. The day of administration to non-naive Cynomolgus macaque was defined as day 1, the day before it was day 0, the day after it was day 2, and so on. Each group had 2 animals. On days 1 and 29, the animals were injected subcutaneously with the solvent or 0.5 mL/kg of the test compound.
On day 0 (0 h) before administration by SC, and days 7, 29, 56 and 99 after administration, the liver sample was collected. Collection method: The animals was fasted for 12-16 hrs before sample collection. Collection of liver biopsy tissue: The collection process would be operated and recorded according to the SOP of the research institution.

[2] = system: DGAT2; test: Inhibition rate on target gene DGAT2 mRNA in primary human hepatocytes (PHHs), free uptake; type: cell-based
Method: The test compound was prepared into a 100 µM/200 µM mother liquor with PBS.
Human hepatocytes (PHHs). PHHs were revived and cultured in InvitroGRO CP medium (BIOIVT article number S0331) containing 10% fetal bovine serum (FBS, Gibco article number 10091148) and 1% penicillin-streptomycin (PS, HyClone article number SV30010).
PHHs (5.4 × 10^4 cells/well) were inoculated into a 96-well plate, and siRNA was added into the cell while plating. The compound entered the cells through free uptake. […] concentration points (100 nM, 20 nM, 4 nM, 0.8 nM, 0.16 nM, 0.032 nM, and 0.0064 nM) were set for siRNA test, and 2 wells were measured in parallel. At the same time, a compound-free control group containing PBS was set up. The cells were cultured in an incubator at 37°C with 5% CO2.
48 hrs later, the medium was removed and the cells were collected for RNA extraction. Total RNA was extracted by using RNeasy® 96 Kit (QIAGEN-74182) according to the instructions for use of the kit. cDNA was synthesized by using HiScript III RT SuperMix for qPCR (+gDNA wiper) (Vazyme article number R323-01) following the instructions.
The target gen cDNA was detected by qPCR, and the internal reference gene GAPDH cDNA was also detected. 8 µL of prepared PCR reaction solution and 2 µL of sample cDNA were added into a 384 well plate. […]

[3] = system: hDGAT2; test: Mouse model receiving hydrodynamic injection of DGAT2 plasmid via tail vein (Example 5, liver mRNA qPCR); type: in vivo; conditions: 3mpk subcutaneously day 0, HDI day 14, BALB/c mice
Method: BALB/c mice, female, 6-7 weeks old.
pcDNA-DGAT2 plasmid, having a concentration of 2 µg/µL, diluted with physiological saline for later use.
The hydrodynamic injection scheme of DGAT2 plasmid DNA via tail vein, the administration and the sample collection method were as follows.
Treatment with compound: The day of administration to mice was defined as day 0, the day before it was day -1, the day after it was day 1, and so on. On day 0, the mice were injected subcutaneously with 5 mL/kg of the solvent or the test compound, at a dosage of 3mpk.
Hydrodynamic injection of DGAT2 plasmid DNA solution into mice via tail vein: On day 4 or 14, the plasmid DNA was prepared with normal saline before injection, and stored at 4°C until use. All mice were injected with the plasmid DNA solution in a volume of 8% of the body weight (injection volume (mL)= body weight of mice (g) x 8%) in 5 seconds via the tail vein, and the weight of plasmid injected into each mouse was 10 µg.
Endpoint of the experiment and collection of liver samples: On day 5 or 15, that is, 24 hrs after the hydrodynamic injection of DGAT2 plasmid via the tail vein, all mice were euthanized by CO2 inhalation. After euthanasia, blood samples were collected from the heart and liver samples were collected. 2 liver tissues of about 70 mg were immersed in RNAlater®, and incubated overnight at 4 °C. The supernatant was discarded and the remainder was transferred to a freezer at -80°C, for mRNA detection later.
RNA in the liver was extracted with Trizol. The method was briefly described as follows: 50-70 mg of liver tissue and 1.2 mL of Trizol were homogenized with Qiagen Tissue Lyser II at 26 Hz for 2 min and lyzed at room temperature for 5 min. 1 mL of the supernatant was taken, added to 200 uL of chloroform, vigorously shaken for 15 s, allowed to stand for 3 min, and centrifuged. The supernatant was collected, added with an equal volume of isopropanol, and stood overnight at -20°C for precipitation. The precipitate was washed twice with 70% , and dissolved in water without RNase. The concentration of the RNA sample was determined by Nanodrop ONE and diluted to 400 ng/uL with water without RNase for reverse transcription.
The experimental steps of reverse transcription could be made reference to the instruction of FastKing cDNA first strand synthesis kit (genome clean). Briefly, a gDNA removal mixture was prepared according to Table 6. The mixture (5 µL/sample) and 400 ng/µL RNA sample were added to a 96-well PCR reaction plate, incubated at 42°C for 3 min, and cooled on ice. A mixture for reverse transcription was prepared according to Table 7. The reverse transcription mixture (10 µL/sample) and the DNA removal product of the previous step were added to a 96-well PCR reaction plate, for reverse transcription. Reaction conditions: 42°C for 15 min; and 95°C for 3 min. The cDNA was stored at 4°C for further analysis. Table 6. Ingredients for gDNA-removal reaction
Reaction conditions: 95°C for 10 min; and 40 cycles of 95°C for 15 s, and 60°C for 1 min. Table 8. Ingredients for qPCR Reaction (DGAT2)
The expression of the target gene in each sample was analyzed by relative quantification using ΔΔCt method. In this method, the Ct difference (ΔCt) between the target gene (DGAT2) and the internal reference gene (Neo) was determined, and the ΔCt value of the sample treated with the compound was compared with that of the control group.
The formula is: ΔCt = average Ct value of target gene−average Ct value of reference gene. [formula] [formula]
Data analysis: The data are expressed as the average of each group of mouse samples ± standard error. Unless otherwise specified, n=4 or 5. Student's t test was used for statistical analysis. Table 10.1 Test for evaluating the in-vivo inhibitory activity of siRNA compounds on target gene DGAT2 in mice model receiving hDGAT2 HDI 5 days after administration

## dS319: sense (invAb)*acaccauaGfAfCfuauuugcuua[L96]; anti-sense Vpu*Af*a*GfcAfaauagUfcUfaUfgGfuGf* u
[1]; D7
  Average inhibition rate, %: 84.9%
[1]; D28
  Average inhibition rate, %: 93.2%
[1]; D56
  Average inhibition rate, %: 89.4%
[1]; D99
  Average inhibition rate, %: 88%
[1]; conclusion in words, non-naive Cynomolgus macaque
  inhibitory activity on the target gene DGAT2: long-term inhibitory activity
[2]
  IC50: 0.0623 nM
[3]
  Average inhibition rate, % Day 1 after HDI (day 15 after administration): 91.79%
